Source: paper PMC12002330 (Proceedings of the National Academy of Sciences of the …, 2025)
Where two headings read alike, the source gives them in different places. Values belong to the molecule of their own block, whether it stands above or below them.

How the values were obtained:
WT DENV-2 NS4B = WT DENV-2 NS4B (Dengue virus type 2, UniProt P29990); test: ITC binding of inhibitor to NS4B
four serotypes of DENV = conditions: cited from earlier work
DENV-2 NGC strain (WT) = test: microbe, parasite or virus in culture; format: cell-based
[1] = target: NS4B peptide 121-171 (cytosolic loop) (Dengue virus type 2, UniProt P29990); format: binding; conditions: aa 121 to 171
NS4B peptide 121-171 (cytosolic loop), sequence (P29990 2364-2414): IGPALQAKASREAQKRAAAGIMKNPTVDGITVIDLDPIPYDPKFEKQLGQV

[2] = target: NS4B/NS3 interaction (WT NS4B) (Dengue virus type 2, UniProt P14340); format: cell-based
NS4B/NS3 interaction (WT NS4B), sequence (P14340 2244-2491): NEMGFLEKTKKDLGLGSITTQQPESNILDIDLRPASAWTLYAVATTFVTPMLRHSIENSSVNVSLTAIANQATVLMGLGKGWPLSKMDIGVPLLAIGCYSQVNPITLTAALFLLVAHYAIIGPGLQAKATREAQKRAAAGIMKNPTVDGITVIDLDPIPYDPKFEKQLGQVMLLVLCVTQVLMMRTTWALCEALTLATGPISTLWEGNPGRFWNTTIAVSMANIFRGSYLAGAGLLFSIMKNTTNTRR

DENV-2 NGC-Nluc = test: Antiviral assay using NGC-Nluc in Huh7 cells; format: cell-based
[3] = target: DENV-2 NS4B/NS3 interaction (Dengue virus type 2, UniProt P29990); format: binding
DENV-2 NS4B/NS3 interaction, sequence (P29990 2244-2491): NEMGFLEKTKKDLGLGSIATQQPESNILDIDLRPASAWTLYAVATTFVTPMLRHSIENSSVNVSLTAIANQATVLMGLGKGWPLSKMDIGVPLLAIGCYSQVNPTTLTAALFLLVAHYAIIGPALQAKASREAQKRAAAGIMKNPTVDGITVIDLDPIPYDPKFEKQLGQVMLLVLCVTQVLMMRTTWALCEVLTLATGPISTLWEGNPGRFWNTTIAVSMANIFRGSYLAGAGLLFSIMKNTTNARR

[4] = target: recombinant DENV-2 NS4B (mature, full-length) with an N-terminal hexahistidine tag (DENV-2) (UniProt P14340); test: ITC
recombinant DENV-2 NS4B (mature, full-length) with an N-terminal hexahistidine tag (DENV-2), sequence (P14340 2244-2491 limits assumed): as the sequence (P14340 2244-2491) above

[5] = target: recombinant DENV-2 NS4B (mature, full-length) with an N-terminal hexahistidine tag (DENV-2) (UniProt P14340); test: BLI
[6] = target: recombinant WT ZIKV NS4B (ZIKV) (UniProt Q32ZE1); test: ITC

recombinant DENV-2 full-length NS3, sequence (P14340 1476-2093 limits assumed): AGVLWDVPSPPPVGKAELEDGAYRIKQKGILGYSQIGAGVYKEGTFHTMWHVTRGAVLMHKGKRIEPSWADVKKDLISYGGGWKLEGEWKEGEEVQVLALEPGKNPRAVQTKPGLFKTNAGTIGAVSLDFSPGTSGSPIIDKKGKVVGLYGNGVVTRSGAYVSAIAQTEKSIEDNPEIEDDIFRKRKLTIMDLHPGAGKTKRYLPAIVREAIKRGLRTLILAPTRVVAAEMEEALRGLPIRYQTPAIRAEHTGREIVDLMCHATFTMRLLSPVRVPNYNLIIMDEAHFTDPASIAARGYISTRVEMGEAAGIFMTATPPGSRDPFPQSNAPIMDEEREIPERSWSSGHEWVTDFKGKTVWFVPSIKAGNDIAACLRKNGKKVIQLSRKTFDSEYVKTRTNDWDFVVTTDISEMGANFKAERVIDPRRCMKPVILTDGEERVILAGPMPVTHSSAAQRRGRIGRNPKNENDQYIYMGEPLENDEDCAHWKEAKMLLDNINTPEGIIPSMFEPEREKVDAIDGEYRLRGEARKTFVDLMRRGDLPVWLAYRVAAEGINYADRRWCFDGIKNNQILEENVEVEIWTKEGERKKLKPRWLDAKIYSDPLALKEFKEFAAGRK
WT DENV-2 NS4B, sequence (P29990 2244-2491): as the sequence (P29990 2244-2491) above

- higher binding affinity to NS4B compared to NITD-688 (WT DENV-2 NS4B): 4.2 fold
- EC50 (DENV-2 NGC strain (WT); Dengue virus, DENV2, A549, 48 h, read-out: EC50 (averaged)): 0.019 nM
- binding to cytosolic loop of NS4B by ITC [1]: not the cytosolic loop
- decrease of NS3 co-IPed with NS4B ([2]; 10 nM JNJ-1802 added at 4 h posttransfection): 80%
- decrease of NS3 co-IPed with NS4B ([2]; 10 nM JNJ-1802 added at 24 h posttransfection): 8%
- EC50 (DENV-2 NGC-Nluc; Dengue virus, DENV2, Huh-7, 48 h): 0.031 nM
- more inhibition of NS4B/NS3 interactions than NITD-688 ([3]; ITC assay): approximately 4 fold
- inhibition of NS4B/NS3 binding ([3]; ITC, JNJ-1802 preincubated with NS4B): effectively inhibited
Molecule: COc1cc(N[C@H](C(=O)c2c[nH]c3ccc(OC(F)(F)F)cc23)c2ccc(Cl)cc2OC)cc(S(C)(=O)=O)c1 [JNJ-1802]
- efficacy against four serotypes of DENV (four serotypes of DENV): picomolar to low nanomolar efficacy
- higher potency in cellular assays than NITD-688 (DENV-2 NGC strain (WT)): ~ 100 fold

Molecule: recombinant DENV-2 full-length NS3 (from UniProt P14340 1476-2093) (enzyme)
- KD with NITD-688 (molar ratio to NS4B 1:2) [4]: 26.2 µM
- KD with NITD-688 (molar ratio to NS4B 4:1) [4]: 594 µM
- Kd [4]: 12.3 µM
- Kd [5]: 13 µM
- fold increase of koff, 200 nM against 3.1 nM NITD-688 [5]: 2.6 fold

Molecule: NS3 used in the ITC of ZIKV NS4B/NS3 interactions (enzyme)
- Kd [6]: 3.4 µM

Molecule: C#C[C@@]1(O)[C@H](O)[C@@H](CO)O[C@H]1n1ccc2c(N)ncnc21 [NITD-008]
- EC50 (DENV-2 NGC-Nluc; Huh7 cells): 380 nM
